Legend:
[1] = Bidirectional transport across the Caco-2 cell monolayer (Papp, efflux ratio, mass balance); settings: human; for recovery at 90 min, 50 μM: mass balance, total amount in AP and BL sides, incubation up to 90 min, n = 3
[2] = Time course of TMF constituents during anaerobic biotransformation by human intestinal flora; format: in vitro ADME; settings: male, human, human intestinal flora (faecal suspension in GAM); incubation by HIF; read-out: Time of maximum concentration
Protocol: (§1) The general anaerobic medium (GAM) of HIF was prepared as follows: 10.0 g of tryptone, 10.0 g of proteose peptone, 13.5 g of digested serum powder, 5.0 g of yeast extract, 2.2 g of beef extract, 1.2 g of beef liver extract powder, 3.0 g of glucose, 2.5 g of KH2PO4, 3.0 g of NaCl, 5.0 g of soluble starch, 0.3 g of L-cysteine hydrochloride, and 0.3 g of sodium thioglycolate were dissolved in H2O. Adjust the pH of GAM solution to 7.1–7.2 with 1M NaOH aqueous solution and supply the total volume to 1 L. Ten grams of fresh feces obtained from a healthy volunteer, who had not taken any medicine in three months, were immediately homogenized and suspended in GAM (50 mL) solution. The HIF was undertaken according to the previous paper of our laboratory. Preparation of the biotransformation products of TMF by HIF was followed by the method of previous research.
(§2) A biotransformation system consisting of HIF (10 mL) and TMF (10 mg) was anaerobically incubated at 37 °C. All experiments were carried out in sextuplicate at each time point. The biotransformation reaction was stopped at 0.5, 1, 2, 4, 8, 12, 24, 36, 48, 60 h. The biotransformation solution was extracted with n-butanol (each 10 mL) three times. The combined n-butanol layer was evaporated to dryness under a gentle stream of nitrogen. MeOH (400 μL) was used to dissolve the residue which acted as a deproteinization agent. The resultant solution was vortex-mixed for 1 min and centrifuged at 16,000 g for 10 min at 4 °C. The supernatant was collected and filtered through a 0.22 μm filter as the test solution. The blank sample was prepared using TMF-free medium solution with the same processing steps. […] The column temperature was set at 30 °C and detection wavelength was set at 254 nm.

[3] = tested on: human intestinal flora (HIF); test: as above; format: in vitro ADME; settings: for Reduction of content (fold): after 60 h incubation by HIF; for Increase of content (fold): 60 h incubation by HIF
Protocol: as §1, §2

Caco-2 cell monolayer = test: Bidirectional transport across the Caco-2 cell monolayer (Papp, efflux ratio, mass balance); settings: Caco-2 monolayer; classes after ref 18
[4] = tested on: RAW 264.7 murine macrophages cells; parameters: method as in PMID 22644850; settings: RAW 264.7 cells; compared with daidzin; cited from earlier work
in vitro = settings: human
[5] = Caco-2, pH 7.4, Level (order of magnitude) of Papp, Caco-2 monolayer
[6] = Caco-2, pH 7.4, Total Recovery (%) AP→BL
[7] = Caco-2, pH 7.4, Total Recovery (%) BL→AP
[8] = Caco-2, pH 7.4, Absorption class by Papp, Caco-2 monolayer, classes after ref 18

Papp A→B at 90 min, 50 μM ([1]; Caco-2, pH 7.4) | Papp B→A at 90 min, 50 μM ([1]; Caco-2, pH 7.4) | efflux ratio at 1 h, 50 μM ([1]; Caco-2, pH 7.4) | Papp at 1 h, 50 μM [1, 5] | recovery at 90 min, 50 μM [1, 6] | recovery at 90 min, 50 μM [1, 7] | Structure (SMILES) | further results
12.9 ± 2.8 nm/s | 10.3 ± 0.9 nm/s | 0.8 | ~10 nm/s | 77% | 91.4% | COc1ccc(C2=CC(=O)OC2Cc2ccc(O)cc2)c(OC2OC(CO)C(O)C(O)C2O)c1 (racemic) [Compound 8, (±)-puerol B-2″-O-glucopyranoside] | 
4.5 ± 0.2 nm/s | 2.9 ± 0.1 nm/s | 0.64 |  | 98.1% | 94.4% | O=c1c(-c2ccc(O)c(O)c2)coc2c(C3OC(CO)C(O)C(O)C3O)c(O)ccc12 (stereo not drawn) [Compound 1, 3′-hydroxypuerarin] | Tmax [2]: 2 h
 |  |  |  |  |  | O=Cc1ccc(O)c(O)c1 [Compound 2, protocatechuic aldehyde] | Content remaining ([3]; at 60 h incubation by HIF): ~50%
9.7 ± 0.1 nm/s | 5.3 ± 0.1 nm/s | 0.55 |  | 101% | 98.3% | O=c1c(-c2ccc(O)c(O)c2)coc2c([C@@H]3O[C@H](CO[C@@H]4OC[C@](O)(CO)[C@H]4O)[C@@H](O)[C@H](O)[C@H]3O)c(O)ccc12 [Compound 3, 3′-hydroxymirificin] | Content remaining ([3]; early stage (4 h) of incubation by HIF): ~25%
7.5 ± 0.9 nm/s | 4.7 ± 0.3 nm/s | 0.63 |  | 94.6% | 86.2% | COc1cc(-c2coc3c(C4OC(CO)C(O)C(O)C4O)c(O)ccc3c2=O)ccc1O (stereo not drawn) [Compound 5, 3′-methoxypuerarin] | Content remaining ([3]; at 60 h incubation by HIF): ~50%
2.9 ± 0.1 nm/s | 2.3 ± 0.1 nm/s | 0.79 |  | 99.4% | 98.5% | O=c1c(-c2ccc(O)cc2)coc2c([C@@H]3O[C@H](CO[C@@H]4OC[C@](O)(CO)[C@H]4O)[C@@H](O)[C@H](O)[C@H]3O)c(O)ccc12 [Compound 6, mirificin] | Reduction of content (fold) [3]: 10 fold
62.7 ± 8.1 nm/s | 83 ± 16 nm/s | 1.32 | ~10 nm/s | 86% | 90.9% | O=C1C=C(c2ccc(O)cc2O)[C@@H](Cc2ccc(O)cc2)O1 [Compound 9, puerol A] | Increase of content (fold) [3]: more than 3 fold
 |  |  |  |  |  | O=c1c(-c2ccc(O)cc2)coc2cc(O)ccc12 [Compound 10, daidzein] | Inhibitory effect on lipopolysaccharide-induced nitric oxide production [4]: stronger than that of daidzin; Papp A→B at 90 min, 50 μM (in vitro; Caco-2, pH 7.4): 255 ± 3.4 nm/s; Papp B→A at 90 min, 50 μM (in vitro; Caco-2, pH 7.4): 262.2 ± 0.1 nm/s; Papp at 1 h, 50 μM (in vitro; Caco-2, pH 7.4, Absorption class by Papp): > 100 nm/s; Papp at 1 h, 50 μM (in vitro; Caco-2, pH 7.4, Level (order of magnitude) of Papp): ~100 nm/s; recovery at 90 min, 50 μM (in vitro; [6]): 93.4%; recovery at 90 min, 50 μM (in vitro; [7]): 100%
324 ± 38.6 nm/s | 377 ± 19.3 nm/s | 1.16 | ~100 nm/s | 86.7% | 75.7% | O=c1c(-c2ccc(O)cc2)coc2cc(O)cc(O)c12 [Compound 11, genistein] | Increase of content (fold) [3]: more than 3 fold; Papp at 1 h, 50 μM [1, 8]: > 100 nm/s
306.4 ± 0.7 nm/s | 265 ± 11 nm/s | 0.87 | ~100 nm/s | 102% | 98% | COc1ccc(-c2coc3cc(O)ccc3c2=O)cc1 [Compound 12, formononetin] | Increase of content (fold) [3]: more than 3 fold; Papp at 1 h, 50 μM [1, 8]: > 100 nm/s
 |  |  |  |  |  | CC(C)NCC(O)COc1cccc2ccccc12 (stereo not drawn) [propranolol, reference compound] | Papp A→B at 1 h ([1]; Caco-2, pH 7.4): 337 nm/s

Structure (SMILES) | Papp A→B at 90 min, 50 μM ([1]; Caco-2, pH 7.4) | Papp B→A at 90 min, 50 μM ([1]; Caco-2, pH 7.4) | efflux ratio at 1 h, 50 μM ([1]; Caco-2, pH 7.4) | Papp at 1 h, 50 μM [1, 5] | recovery at 90 min, 50 μM [1, 6] | recovery at 90 min, 50 μM [1, 7] | further results
O=c1c(-c2ccc(O)cc2)coc2c([C@@H]3O[C@H](CO)[C@@H](O)[C@H](O)[C@H]3O)c(O)ccc12 [Compound 4, puerarin] | 6.8 ± 0.2 nm/s | 4.1 ± 0.1 nm/s | 0.6 | ~1 nm/s | 96.6% | 95.7% | Absorption class by Papp (Caco-2 cell monolayer): poorly absorbed
O=c1c(-c2ccc(O)cc2)coc2cc(O[C@@H]3O[C@H](CO)[C@@H](O)[C@H](O)[C@H]3O)ccc12 [Compound 7, daidzin] | 4 ± 0.1 nm/s | 3.7 ± 0.1 nm/s | 0.92 |  | 99.8% | 98.5% | Reduction of content (fold) [3]: 10 fold; Conversion by HIF ([3]; during the 60 h incubation by HIF): almost completely converted into daidzein (10); Papp at 1 h, 50 μM ([1]; Caco-2, pH 7.4): ~1 nm/s; Absorption class by Papp (Caco-2 cell monolayer): poorly absorbed

Reference: paper PMC6331934, “Study of the Biotransformation of Tongmai Formula by Human Intestinal Flora and Its Intestinal Permeability across the Caco-2 Cell Monolayer” (Molecules, 2015)
